Assay results: PubChem BioAssay (NCI)
Values joined by “and” are separate entries in the source; they are usually repeats but may differ in a detail not shown here. Equal values may be shown once.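 The compound was tested at five concentrations on cells cultured in 96-well plates, with a 48-hour exposure period. GI50: concentration for 50% inhibition of growth. TGI marks complete inhibition of growth.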 Where a SMILES comes first, the peptide text is derived from it. [ ]: non-standard residue; d: D form. The star is where a group is joined. ξ: configuration not given here. NMeY = CN[C@@H](Cc1ccc(O)cc1)C(=O)O; Cbz = O=C(OCc1ccccc1)*; ξA = CC(N)C(=O)O

Experiments:
Test in all cases: NCI-60 cell line screen, 48 h
[1] = tested on: IGROV1 ovarian
[2] = tested on: ACHN renal
[3] = tested on: HT29 colon
[4] = tested on: OVCAR-3 ovarian
[5] = tested on: MDA-MB-435
[6] = tested on: DU-145 prostate
[7] = tested on: HCT-15 colon
[8] = tested on: SK-MEL-2 melanoma
[9] = tested on: MOLT-4 leukemia
[10] = tested on: OVCAR-8 ovarian
[11] = tested on: SR leukemia

SMILES	TGI [1]	TGI [2]	TGI [3]	TGI [4]	TGI [5]	TGI [6]	TGI [7]	TGI [8]	TGI [9]	TGI [10]	TGI [11]	GI50 [2]	GI50 [4]	GI50 [5]	GI50 [6]	GI50 [7]	GI50 [8]	GI50 [9]	GI50 [10]	GI50 [11]
COc1ccc(/C(C)=C2\CCCN(Cc3ccccc3)C2)cc1	94.3 µM	98.4 µM	39.5 µM	37.4 µM	51.6 µM	> 100 µM	46.1 µM	43.4 µM	59.8 µM	35.9 µM	42.2 µM									
c1ccc2c(c1)CCN1CCc3ccccc3C1C2 (stereo not drawn)	> 100 µM	> 100 µM	> 100 µM	> 100 µM	> 100 µM	> 100 µM	> 100 µM	> 100 µM	> 100 µM	> 100 µM	> 100 µM									
CC(=O)N1C(c2[nH]c3ccccc3c2Cc2ccccc2)CCN1c1ccccc1 (stereo not drawn)	> 10 µM	> 10 µM	> 10 µM	> 10 µM	> 10 µM	> 10 µM	> 10 µM	> 10 µM	> 10 µM	> 10 µM	> 10 µM									
O=S(=O)(O)c1c(Cl)c(Cl)c(O)c2ncccc12	16 µM	26.2 µM	24 µM	42.3 µM	30.5 µM	61.4 µM	27.1 µM	45 µM	20.1 µM	51.3 µM	27.6 µM									
COc1ccc(C[C@@H](C(=O)N[C@@H](C)C(N)=O)N(C)C(=O)[C@@H]2CCCN2C(=O)[C@H](CC(C)C)NC(=O)C(C)NC(=O)OCc2ccccc2)cc1 (stereo partly drawn) (Cbz-[ξA]LP[NMeY](Me)A-NH2)	> 100 µM	> 100 µM	> 100 µM	> 100 µM	> 100 µM	> 100 µM	> 100 µM	> 100 µM	> 100 µM	> 100 µM	> 100 µM									
COC(=O)CN1Cc2cc(C)cc(c2O)CN(CC(=O)OC)Cc2cc(C)cc(c2O)CN(CC(=O)OC)Cc2cc(C)cc(c2O)CN(CC(=O)OC)Cc2cc(C)cc(c2O)C1	50 µM	50 µM and > 100 µM	50 µM	32.1 µM and > 100 µM	50 µM and > 100 µM	50 µM and > 100 µM	50 µM and > 100 µM	50 µM and 31.3 µM	50 µM and > 100 µM	50 µM and > 100 µM	50 µM and > 100 µM	34.6 µM	5.7 µM	45.9 µM	33.3 µM	25 µM	2.36 µM	39.8 µM	18.7 µM	18 µM
CC(C)N(C(C)C)S(=O)(=O)CC12CCC(C/C1=N\O)C2 (stereo not drawn)	> 100 µM	> 100 µM	> 100 µM	> 100 µM	> 100 µM	> 100 µM	> 100 µM	> 100 µM	> 100 µM	> 100 µM	> 100 µM									
COC(C)=NCCC1=CCCCC1	> 100 µM	> 100 µM	> 100 µM	> 100 µM	> 100 µM	> 100 µM	> 100 µM	> 100 µM	> 100 µM	> 100 µM	> 100 µM									
OC1C2CCCCN2C[C@@H](O)[C@H]1O (stereo partly drawn)	> 100 µM	> 100 µM	> 100 µM	> 100 µM	> 100 µM	> 100 µM	> 100 µM	> 100 µM	> 100 µM	> 100 µM	> 100 µM									
